Test results taken from publication PMC7093798 (Data in Brief, 2019).

System: aminopyrine N-demethylase activity (CYP)
Experiment: CYP inhibition: aminopyrine N-demethylase
Assay type: in vitro ADME, rat
Conditions: RLM, 1–100 μM

O=C(/C=C/c1cccnc1)NCCCCC1CCN(C(=O)c2ccccc2)CC1 [FK866]
AND inhibitory activity (in words): mild AND inhibitory activity only at 100 μM concentration
